Assay results taken from patent US20220089592A1, “IMIDAZO[1,2-A]PYRIDINYL DERIVATIVES AS IRAK4 INHIBITORS” (priority 2019, published 2022).

Target: T1, IRAK4 (Homo sapiens, UniProt Q9NWZ3)
T1 sequence (Q9NWZ3 1-460): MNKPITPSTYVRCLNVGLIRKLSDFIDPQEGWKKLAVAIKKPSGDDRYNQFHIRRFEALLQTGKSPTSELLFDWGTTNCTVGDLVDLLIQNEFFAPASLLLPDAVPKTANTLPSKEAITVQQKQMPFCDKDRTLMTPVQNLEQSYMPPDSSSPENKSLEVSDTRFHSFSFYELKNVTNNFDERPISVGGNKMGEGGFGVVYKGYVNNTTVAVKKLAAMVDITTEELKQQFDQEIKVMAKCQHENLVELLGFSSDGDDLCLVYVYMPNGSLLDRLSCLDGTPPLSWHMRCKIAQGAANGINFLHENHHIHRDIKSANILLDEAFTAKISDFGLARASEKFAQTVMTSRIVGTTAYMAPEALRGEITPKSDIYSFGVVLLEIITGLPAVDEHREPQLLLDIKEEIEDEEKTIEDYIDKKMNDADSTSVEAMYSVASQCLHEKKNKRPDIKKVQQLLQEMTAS
Experiment: 2-hour 10 μM ATP Biochemical Assay (MesoScale Detection format; IRAK4 phosphorylation of biotin labeled IRAK1 activation loop peptide)
Conditions: IRAK4 MSD BIOCHEMICAL (10 μM ATP) IC50 (μM), 1 nM IRAK4, 2 hours
Method: The 2-hour 10 μM ATP Biochemical Assay employs a MesoScale Detection (MSD) format.
The activity is quenched with 11 μl of 70 mM EDTA, pH 8.
To detect the phosphorylated biotinylated peptide substrate, 30 μl of the quenched reaction mixture is added to equivalent wells of a 384 well streptavidin coated MesoScale plate (Meso Scale Discovery #L21SA-1). After a 1 hour incubation of the plate for 1 hour at room temperature with gentle mixing, the plate wells are washed 3 times with 50 mM Tris, pH 7.5, 150 mM NaCl, 0.02% Tween-20.
A 25 μl volume of 1:500 anti-P-Threonine Rabbit polyclonal Antibody plus 1:500 Goat-anti-Rabbit Sulfo Tag Antibody (Meso Scale Discovery R32AB-1) in 50 mM Tris, pH 7.5, 150 mM NaCl, 0.02% Tween-20 plus 2% BSA is then added to each well. After a 1-hour incubation of the plate for 1 hour at room temperature with gentle mixing, the plate wells are washed, 3 times with 50 mM Tris, pH 7.5, 150 mM NaCl, 0.02% Tween-20. A 40 μl volume of 2×MSD Read Buffer (Meso Scale Discovery R92TC-1) is added to each well, and the plate is read immediately in an MSD Plate Reader (Meso Scale Discovery).

Row | IC50 | SMILES
1 | 0.023 µM | CN(C)CCOc1cc2nc(C3CCOCC3)cn2cc1NC(=O)c1cccc(C(F)F)n1 [Example 148, 6-(difluoromethyl)-N-(7-(2-(dimethylamino)ethoxy)-2-(tetrahydro-2H-pyran-4-yl)imidazo[1,2-a]pyridin-6-yl)picolinamide]
2 | 0.027 µM | O=C(Nc1cc(Br)c2nc(C3CCOCC3)cn2c1)c1cccc(C(F)(F)F)n1 [Example 106, N-(8-bromo-2-(tetrahydro-2H-pyran-4-yl)imidazo[1,2-a]pyridin-6-yl)-6-(trifluoromethyl)picolinamide]
3 | 0.001 µM | CCOc1cc2nc(C3CCN(C)CC3)cn2cc1NC(=O)c1cccc(C(F)(F)F)n1 [Example 67, N-(7-ethoxy-2-(1-methylpiperidin-4-yl)imidazo[1,2-a]pyridin-6-yl)-6-(trifluoromethyl)picolinamide]
4 | 0.21 µM | CCOc1cc2nc(CC)cn2cc1NC(=O)c1ccc(F)c(C(F)(F)F)n1 [Example 51, N-(7-ethoxy-2-ethylimidazo[1,2-a]pyridin-6-yl)-5-fluoro-6-(trifluoromethyl)picolinamide]
5 | 0.029 µM | CCOc1cc2nc(C3CCOCC3)cn2cc1NC(=O)c1cccc(OCC(F)(F)F)n1 [Example 363, N-(7-ethoxy-2-(tetrahydro-2H-pyran-4-yl)imidazo[1,2-a]pyridin-6-yl)-6-(2,2,2-trifluoroethoxy)picolinamide]
6 | 0.022 µM | CCOc1cc2nc(C3CCOCC3)cn2cc1NC(=O)c1ccccc1F [Example 212, N-(7-ethoxy-2-(tetrahydro-2H-pyran-4-yl)imidazo[1,2-a]pyridin-6-yl)-2-fluorobenzamide]
7 | 0.021 µM | CCOc1cc2nc(C3CCOCC3)cn2cc1NC(=O)c1ccn(C(C)(C)C)n1 [Example 207, 1-(tert-butyl)-N-(7-ethoxy-2-(tetrahydro-2H-pyran-4-yl)imidazo[1,2-a]pyridin-6-yl)-1H-pyrazole-3-carboxamide]
8 | 0.13 µM | O=C(Nc1cc(O)c2nc(C3CCOCC3)cn2c1)c1cccc(C(F)(F)F)n1 [Example 104, N-(8-hydroxy-2-(tetrahydro-2H-pyran-4-yl)imidazo[1,2-a]pyridin-6-yl)-6-(trifluoromethyl)picolinamide]
9 | 0.28 µM | C[C@H](COc1cc2nc(C3CC3)cn2cc1NC(=O)c1cccc(C(F)F)n1)n1ccccc1=O (single isomer, unassigned) [Example 7]
10 | 0.043 µM | CCOc1cc(NC(=O)c2cccc(C(F)F)n2)cn2cc(C3CC3)nc12 [Example 28, N-(2-cyclopropyl-8-ethoxyimidazo[1,2-a]pyridin-6-yl)-6-(difluoromethyl)picolinamide]
11 | 0.084 µM | O=C(Nc1cc(C2=CCOCC2)c2nc(C3CCOCC3)cn2c1)c1cccc(C(F)(F)F)n1 [Example 107, N-(8-(3,6-dihydro-2H-pyran-4-yl)-2-(tetrahydro-2H-pyran-4-yl)imidazo[1,2-a]pyridin-6-yl)-6-(trifluoromethyl)picolinamide]
12 | 0.003 µM | COc1nc(NC(=O)c2cccc(C(F)F)n2)cn2cc(C3CCOCC3)nc12 [Example 450, 6-(difluoromethyl)-N-(8-methoxy-2-(tetrahydro-2H-pyran-4-yl)imidazo[1,2-a]pyrazin-6-yl)picolinamide]
13 | 0.11 µM | CCOc1cc2nc(C)c(C)n2cc1NC(=O)c1cccc(C(F)(F)F)n1 [Example 58, N-(7-ethoxy-2,3-dimethylimidazo[1,2-a]pyridin-6-yl)-6-(trifluoromethyl)picolinamide]
14 | 0.001 µM | CCOc1cc2nc(C3CCOC(C)(C)C3)cn2cc1NC(=O)c1cccc(C(F)(F)F)n1 (stereo not drawn) [Example 113, N-(2-(2,2-dimethyltetrahydro-2H-pyran-4-yl)-7-ethoxyimidazo[1,2-a]pyridin-6-yl)-6-(trifluoromethyl)picolinamide]
15 | 0.023 µM | CCOc1cc2nc(C3CC3)c(F)n2cc1NC(=O)c1cccc(C(F)F)n1 [Example 29, N-(2-cyclopropyl-7-ethoxy-3-fluoroimidazo[1,2-a]pyridin-6-yl)-6-(difluoromethyl)picolinamide]
